# Experimental data taken from ChEMBL document CHEMBL5331098, “Nanomolar β-glucosidase and β-galactosidase inhibition by enantiomeric α-1-C-alkyl-1,4-dideoxy-1,4-imino-arabinitol derivatives” (Eur J Med Chem, 2023).
# Columns and labels:
# [1] = molecular target: Alpha-glucosidase (Saccharomyces cerevisiae S288c, UniProt P53341+P38158+P07265); assay: Inhibition of yeast alpha-glucosidase assessed as reduction of p-nitrophenol release using p-nitrophenyl glycoside as substrate by spectrophotometric analysis; format: protein assay
# [2] = tested on: Oryza sativa; assay: Inhibition of rice alpha-glucosidase assessed as reduction of p-nitrophenol release using p-nitrophenyl glycoside as substrate at 1000 uM by spectrophotometric analysis relative to control
# [3] = species on record: Rattus norvegicus; assay: Inhibition of rat intestinal maltase assessed as D-glucose release using maltose as substrate at pH 6.8 at 1000 uM by colorimetric method relative to control
# [4] = Inhibition of almond beta-glucosidase assessed as reduction of p-nitrophenol release using p-nitrophenyl glycoside as substrate by spectrophotometric analysis; set-up: species or system Prunus dulcis
# [5] = Inhibition of bovine liver beta-glucosidase assessed as reduction of p-nitrophenol release using p-nitrophenyl glycoside as substrate by spectrophotometric analysis; set-up: species or system Bos taurus
# [6] = molecular target: Alpha-galactosidase (Coffea arabica) (UniProt Q42656); assay: Inhibition of coffee beans alpha-galactosidase assessed as reduction of p-nitrophenol release using p-nitrophenyl glycoside as substrate at 1000 uM by spectrophotometric analysis relative to control
# Alpha-galactosidase (Coffea arabica), sequence (Q42656 16-378 limits assumed): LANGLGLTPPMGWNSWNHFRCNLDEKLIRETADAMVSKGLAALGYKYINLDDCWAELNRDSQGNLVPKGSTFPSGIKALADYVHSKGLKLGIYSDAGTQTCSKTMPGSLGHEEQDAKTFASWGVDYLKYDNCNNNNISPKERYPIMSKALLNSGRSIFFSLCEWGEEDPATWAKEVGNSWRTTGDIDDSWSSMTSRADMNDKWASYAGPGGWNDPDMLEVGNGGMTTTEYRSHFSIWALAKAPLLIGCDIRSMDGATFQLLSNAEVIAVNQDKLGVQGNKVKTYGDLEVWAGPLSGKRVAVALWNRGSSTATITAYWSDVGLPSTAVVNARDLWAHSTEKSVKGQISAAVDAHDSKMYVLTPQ
# [7] = Inhibition of bovine liver beta-galactosidase assessed as reduction of p-nitrophenol release using p-nitrophenyl glycoside as substrate by spectrophotometric analysis; set-up: species or system Bos taurus
# [8] = molecular target: T1, Alpha-mannosidase (Canavalia ensiformis) (UniProt C0HJB3); assay: Inhibition of jack bean alpha-mannosidase assessed as reduction of p-nitrophenol release using p-nitrophenyl glycoside as substrate at 1000 uM by spectrophotometric analysis relative to control
# T1 sequence (whole entry): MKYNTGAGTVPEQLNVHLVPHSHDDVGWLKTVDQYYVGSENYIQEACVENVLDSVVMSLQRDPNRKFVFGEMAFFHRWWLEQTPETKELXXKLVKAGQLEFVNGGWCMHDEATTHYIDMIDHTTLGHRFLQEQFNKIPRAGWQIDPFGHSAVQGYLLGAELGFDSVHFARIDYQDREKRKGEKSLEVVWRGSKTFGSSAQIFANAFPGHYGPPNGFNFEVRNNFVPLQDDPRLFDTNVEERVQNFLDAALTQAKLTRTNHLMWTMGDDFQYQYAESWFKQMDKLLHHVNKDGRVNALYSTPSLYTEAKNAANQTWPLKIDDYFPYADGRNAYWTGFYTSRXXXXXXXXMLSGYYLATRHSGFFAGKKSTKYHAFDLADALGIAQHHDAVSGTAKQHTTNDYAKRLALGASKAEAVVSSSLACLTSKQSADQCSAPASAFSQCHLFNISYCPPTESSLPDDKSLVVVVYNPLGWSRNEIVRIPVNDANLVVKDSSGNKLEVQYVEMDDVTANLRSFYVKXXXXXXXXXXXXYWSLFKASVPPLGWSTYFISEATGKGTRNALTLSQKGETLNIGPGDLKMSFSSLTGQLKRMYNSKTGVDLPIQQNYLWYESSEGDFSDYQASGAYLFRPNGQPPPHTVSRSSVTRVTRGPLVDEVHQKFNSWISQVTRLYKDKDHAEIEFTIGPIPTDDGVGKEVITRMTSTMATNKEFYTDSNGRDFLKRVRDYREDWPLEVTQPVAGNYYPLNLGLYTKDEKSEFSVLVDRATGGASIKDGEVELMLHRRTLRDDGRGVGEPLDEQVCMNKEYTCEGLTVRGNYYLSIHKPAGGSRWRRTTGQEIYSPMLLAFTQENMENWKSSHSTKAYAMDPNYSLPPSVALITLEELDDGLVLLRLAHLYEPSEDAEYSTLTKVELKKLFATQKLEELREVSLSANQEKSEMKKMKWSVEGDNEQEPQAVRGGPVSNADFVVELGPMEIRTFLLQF
# [9] = tested on: Helix pomatia; assay: Inhibition of snail beta-mannosidase assessed as reduction of p-nitrophenol release using p-nitrophenyl glycoside as substrate at 1000 uM by spectrophotometric analysis relative to control
# [10] = molecular target: T2, Tissue alpha-L-fucosidase (Bos taurus) (UniProt Q2KIM0); assay: Inhibition of bovine kidney alpha-L-fucosidase assessed as reduction of p-nitrophenol release using p-nitrophenyl glycoside as substrate at 1000 uM by spectrophotometric analysis relative to control
# T2 sequence (whole entry): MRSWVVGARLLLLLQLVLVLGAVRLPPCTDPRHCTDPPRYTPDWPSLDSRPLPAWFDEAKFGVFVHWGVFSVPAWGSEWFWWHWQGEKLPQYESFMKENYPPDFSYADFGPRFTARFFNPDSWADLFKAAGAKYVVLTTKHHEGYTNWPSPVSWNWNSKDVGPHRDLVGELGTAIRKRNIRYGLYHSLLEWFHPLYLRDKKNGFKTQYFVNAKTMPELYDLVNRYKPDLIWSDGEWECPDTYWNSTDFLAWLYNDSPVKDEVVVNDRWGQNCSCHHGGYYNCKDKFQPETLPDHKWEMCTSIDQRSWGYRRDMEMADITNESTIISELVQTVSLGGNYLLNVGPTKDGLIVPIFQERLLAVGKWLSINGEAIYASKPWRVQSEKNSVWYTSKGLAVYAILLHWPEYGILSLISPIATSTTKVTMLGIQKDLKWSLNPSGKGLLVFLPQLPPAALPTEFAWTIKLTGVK
# [11] = species on record: Sus scrofa; assay: Inhibition of porcine kidney alpha/alpha-trehalase assessed as reduction of p-nitrophenol release using p-nitrophenyl glycoside as substrate at 1000 uM by spectrophotometric analysis relative to control
# [12] = Inhibition of Aspergillus niger amyloglucosidase assessed as reduction of p-nitrophenol release using p-nitrophenyl-glycoside as substrate by spectrophotometric analysis
# [13] = tested on: Penicillium decumbens; assay: Inhibition of Penicillium decumbens alpha-L-rhamnosidase assessed as reduction of p-nitrophenol release using p-nitrophenyl-glycoside as substrate at 1000 uM by spectrophotometric analysis relative to control
# [14] = molecular target: Beta-glucuronidase (Escherichia coli (strain K12), UniProt P05804); assay: Inhibition of Escherichia coli beta-glucuronidase assessed as reduction of p-nitrophenol release using p-nitrophenyl-glycoside as substrate by spectrophotometric analysis
# Beta-glucuronidase, sequence (P05804 whole entry): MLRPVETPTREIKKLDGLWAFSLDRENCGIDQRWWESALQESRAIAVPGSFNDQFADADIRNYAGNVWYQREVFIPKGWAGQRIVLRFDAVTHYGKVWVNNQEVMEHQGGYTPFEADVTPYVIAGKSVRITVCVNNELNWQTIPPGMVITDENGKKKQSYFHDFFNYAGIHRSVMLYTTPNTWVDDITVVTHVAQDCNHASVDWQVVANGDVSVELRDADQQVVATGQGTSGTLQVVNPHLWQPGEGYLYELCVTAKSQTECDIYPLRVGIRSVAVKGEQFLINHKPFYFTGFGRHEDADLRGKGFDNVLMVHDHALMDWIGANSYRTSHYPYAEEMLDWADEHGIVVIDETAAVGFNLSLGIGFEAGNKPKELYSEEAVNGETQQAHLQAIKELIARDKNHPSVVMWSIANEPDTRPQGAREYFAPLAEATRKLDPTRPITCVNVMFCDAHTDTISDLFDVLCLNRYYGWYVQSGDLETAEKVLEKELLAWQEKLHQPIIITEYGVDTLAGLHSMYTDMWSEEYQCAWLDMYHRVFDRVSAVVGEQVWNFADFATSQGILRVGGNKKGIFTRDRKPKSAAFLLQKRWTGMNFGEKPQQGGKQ
# [15] = species on record: Bos taurus; assay: Inhibition of bovine liver beta-glucuronidase assessed as reduction of p-nitrophenol release using p-nitrophenyl-glycoside as substrate at 1000 uM by spectrophotometric analysis relative to control
# [16] = molecular target: Alpha-glucosidase (Saccharomyces cerevisiae S288c) (UniProt P53341+P38158+P07265); assay: Inhibition of yeast alpha-glucosidase assessed as reduction of p-nitrophenol release using p-nitrophenyl glycoside as substrate at 1000 uM by spectrophotometric analysis relative to control; format: protein assay
# [17] = Inhibition of human lysosomal beta-glucosidase assessed as reduction of p-nitrophenol release using p-nitrophenyl glycoside as substrate by spectrophotometric analysis
# [18] = tested on: Aspergillus niger; assay: Inhibition of Aspergillus niger amyloglucosidase assessed as reduction of p-nitrophenol release using p-nitrophenyl-glycoside as substrate at 1000 uM by spectrophotometric analysis relative to control
smiles,measurement,setting,value
Cl.OC[C@H]1N[C@H](CCCCCCCc2cccc(F)c2)[C@@H](O)[C@@H]1O,IC50,[1],17.2 µM
same,inhibition,[2],21.3%
same,inhibition,[3],32.8%
same,IC50,[4],11.5 µM
same,IC50,[5],0.04 µM
same,inhibition,[6],1.1%
same,IC50,[7],0.011 µM
same,inhibition,[8],3.1%
same,inhibition,[9],36.6%
same,inhibition,[10],2.7%
same,inhibition,[11],7.5%
same,IC50,[12],40.9 µM
same,inhibition,[13],10%
same,IC50,[14],19.4 µM
same,inhibition,[15],6.9%
Cl.OC[C@H]1N[C@H](CCCCCCCc2ccc(F)cc2)[C@@H](O)[C@@H]1O,IC50,[1],32.2 µM
same,inhibition,[2],11.7%
same,inhibition,[3],15.9%
same,IC50,[4],15.6 µM
same,IC50,[5],0.043 µM
same,inhibition,[6],20.5%
same,IC50,[7],0.008 µM
same,inhibition,[8],22.7%
same,inhibition,[9],37.1%
same,inhibition,[10],38.7%
same,inhibition,[11],4%
same,IC50,[12],31.9 µM
same,inhibition,[13],13%
same,IC50,[14],34.5 µM
same,inhibition,[15],42.5%
OC[C@H]1N[C@H]([C@@H](O)CCCCCCc2ccc(F)c(F)c2)[C@@H](O)[C@@H]1O,inhibition,[16],25.2%
same,inhibition,[2],18.4%
same,inhibition,[3],15%
same,IC50,[4],1.5 µM
same,IC50,[5],0.09 µM
same,IC50,[17],3.8 µM
same,inhibition,[6],0%
same,IC50,[7],0.026 µM
same,inhibition,[8],0%
same,inhibition,[9],48.6%
same,inhibition,[10],0.3%
same,inhibition,[11],0%
same,IC50,[12],59 µM
same,inhibition,[13],2.2%
same,IC50,[14],25 µM
same,inhibition,[15],1.6%
OC[C@H]1N[C@H]([C@@H](O)CCCCCCc2ccc(F)cc2)[C@@H](O)[C@@H]1O,inhibition,[16],42.8%
same,inhibition,[2],21.3%
same,inhibition,[3],23.9%
same,IC50,[4],0.47 µM
same,IC50,[5],0.09 µM
same,IC50,[17],5.2 µM
same,inhibition,[6],0.6%
same,IC50,[7],0.025 µM
same,inhibition,[8],0%
same,inhibition,[9],46.3%
same,inhibition,[10],1.5%
same,inhibition,[11],7.5%
same,inhibition,[18],46.4%
same,inhibition,[13],4%
same,IC50,[14],62 µM
same,inhibition,[15],0.3%
OC[C@H]1N[C@H]([C@@H](O)CCCCCCc2ccccc2)[C@@H](O)[C@@H]1O,inhibition,[16],14.1%
same,inhibition,[2],15.8%
same,inhibition,[3],18.6%
same,IC50,[4],0.62 µM
same,IC50,[5],0.13 µM
same,IC50,[17],7.6 µM
same,inhibition,[6],0%
same,IC50,[7],0.042 µM
same,inhibition,[8],0%
same,inhibition,[9],37.6%
same,inhibition,[10],0%
same,inhibition,[11],4.5%
same,inhibition,[18],39.7%
same,inhibition,[13],3.5%
same,IC50,[14],43 µM
same,inhibition,[15],0%
Cc1ccc(CCCCCCC[C@H]2N[C@H](CO)[C@@H](O)[C@@H]2O)cc1.Cl,IC50,[1],92 µM
same,inhibition,[2],34.4%
same,inhibition,[3],49.9%
same,IC50,[4],10 µM
same,IC50,[5],0.034 µM
same,IC50,[17],5.2 µM
same,inhibition,[6],9.7%
same,IC50,[7],0.008 µM
same,inhibition,[8],3.5%
same,inhibition,[9],37%
same,inhibition,[10],8.6%
same,inhibition,[11],3.5%
same,IC50,[12],33 µM
same,inhibition,[13],14.5%
same,IC50,[14],42 µM
same,inhibition,[15],0%
Cl.OC[C@H]1N[C@H]([C@@H](O)CCCCCCc2ccc(Cl)cc2)[C@@H](O)[C@@H]1O,IC50,[1],59 µM
same,inhibition,[2],16.5%
same,inhibition,[3],1.1%
same,IC50,[4],1.2 µM
same,IC50,[5],0.07 µM
same,IC50,[17],6.1 µM
same,inhibition,[6],0%
same,IC50,[7],0.024 µM
same,inhibition,[8],0%
same,inhibition,[9],45.4%
same,inhibition,[10],2.1%
same,inhibition,[11],5.5%
same,inhibition,[18],41.7%
same,inhibition,[13],3.5%
same,IC50,[14],13 µM
same,inhibition,[15],0%
